“Also recorded” adds a separate entry of the source.
Columns and labels:
MDA-MB-231 [1] = test system: MDA-MB-231
Experimental: The study of the molecular disruption of CXCL12-CXCR4 with a CXCR4 antagonist, AMD3100 was expanded. We first examined the effects of AMD3100 on the proliferation of MDA-MB-231 and T47D, in co-culture with MSCs (FIGS. 1D and 1E), in the presence of two different concentrations of the antagonist (10 and 100 ng/ml) for the 48-hour culture. Parallel cultures contained vehicle.
Some studies also looked at AMD3100 in long-term breast cancer cell/MSC co-cultures. In this set of studies we determined the effect of AMD3100 when breast cancer cells were cultured with MSCs for over 48 hours since this will recapitulate in situ when breast cancer cells are expected to contact MSCs for long periods. […] Control cultures contained vehicle (−) and 2-day exposure to AMD3100 (D2).
(§1) Cultures of breast cancer cells and MSCs, alone or in co-culture, from each experimental setup were assayed for cellular proliferation and viability using the CyQuant Cell Proliferation Assay Kit (Molecular Probes; Eugene, Oreg.) and CellTiter-Blue Cell Viability Assay (Promega), respectively, according to manufacturer's specific instructions.
For determination of proliferation, cells grown in 96-well plates were frozen overnight at −70° C. The next day, thawed cells were incubated in CyQuant GR dye/cell-lysis buffer for 5 minutes at room temperature, and examined using a fluorescence microplate reader at 480 nm excitation/520 nm emission. Proliferation was calculated from a standard curve of known numbers of breast cancer cells and MSCs. To accurately assess the proliferation of breast cancer cells, but not MSC proliferation in co-culture, proliferation of MSCs grown alone were subtracted from the total cellular proliferation recorded.

[2] = test system: naïve breast cancer cells; assay: Transwell assay: proliferation of naïve breast cancer cells with MSCs in the inner wells; assay type: cell-based, human; details: inner wells: MSCs from co-cultures with AMD3100, compared to antagonist-treated MSCs alone; 48 hours
Experimental: Using mechanistic studies, we next asked whether breast cancer cells proliferation by AMD3100 requires contact between MSCs and breast cancer cells. […] To address this question, we utilized a transwell assay in which “naïve” breast cancer cells, which were not previously exposed to MSCs or AMD3100, were seeded in the outer wells. MSCs from co-cultures with AMD3100 or vehicle were added to the inner wells. In parallel, only vehicle was added to the inner wells.
Breast cancer cells (5×10^4) were added to the outer well of 24-well transwell cultures, 0.4 μM insert (BD Falcon). In parallel, breast cancer cells were separated from co-cultures with MSCs by positive selection with anti-cytokeratin-conjugated; pan anti-mouse IgG Dynabeads (Invitrogen). MSCs from the negative fraction were then added to the inner wells of the transwell chamber in order to determine the effects of MSC-derived soluble factors on breast cancer cell proliferation. For neutralization of soluble IL-1α and IL-1β, anti-IL-1RI was titrated into the 24-well plates.
MSCs were co-cultured with breast cancer cells for 12 days with, or without AMD3100. The MSCs were selected and then added to the inner wells of transwell cultures. Naïve breast cancer cells were placed in the outer wells. After 48 hours, breast cancer cells were counted and the results presented as mean±SD, n=3 (A and B). […]

breast cancer cells = details: 12-day co-culture with MSCs, AMD3100 for the last 48 hours, compared to no treatment
Experimental: We studied cell cycle phase of 12-day co-cultured breast cancer cells, with or without AMD3100, as described for FIG. 2. Breast cancer cells cultured alone served as control. […] FIG. 3B illustrates a representative histogram of the proportion of cycling (peaks 2 and 3) versus non-cycling (peak 1) MDA-MB-231 co-cultured with MSCs, with (right) or without AMD3100 (left).
Breast cancer cells and MSC co-cultures were incubated with anti-cytokeratin primary and FITC-anti IgG secondary antibodies to label the breast cancer cell fraction. Cells were then treated with RNase A (1 mg/ml) and fixed with cold 70% ethanol. Cells were stained with 20 μg/ml propidium iodide (PI) solution and transferred to round bottom tubes for DNA analysis by BD FACScan. Double positive cells identified only the desired cellular fraction, consisting of breast cancer cells that incorporated the DNA dye. Cultures incubated with FITC anti-IgG alone were used as isotype controls. All analyses were performed using BD CellQuest software and percent statistics were given.
Breast cancer cells, alone or 12-day cultures with MSCs were treated with AMD3100 for the last 48 hours or untreated. At the end of the assay, cells were co-labeled with anti-cytokeratin and propidium iodide and then analyzed by flow cytometry. Results are presented as the mean percent cycling cells (S+G2/M phases)±SD, n=3 (B). […]

[3] = test system: primary and metastatic breast cancer; details: mice; cited from earlier work
IL-1β = details: MDA-MB-231 transwell cultures, MSCs obtained from AMD3100-treated co-cultures, 48 hours
Experimental: (§5) To assess the factor(s) responsible for breast cancer cell proliferation (FIGS. 4A and 4B), media from representative (MDA-MB-231) transwell cultures were analyzed with a cytokine/growth factor microarray.
(§6) Cytokine production by MSCs in the transwell assay was assessed using the Human Cytokine Antibody Array 5 (RayBiotech; Norcross, Ga.). Briefly, after 48 hours of culture, the transwell was removed and the breast cancer cell growth media collected for cytokine determination. Background levels obtained with media alone were subtracted. The densities of spots were quantitated with UN-SCAN-IT densitometry software (Silk Scientific; Orem, Utah).

[4] = test system: hematopoietic stem cells (HSCs); details: potential side effect in combination with chemotherapy; cited from earlier work
T47D [5] = test system: T47D
Experimental: as §1
(§2) For assessment of viability, CellTiter-Blue reagent was added to cells grown in 96-well plates, and then incubated for 4 hours at 37° C. Following incubation, wells were read using a fluorescence microplate reader at 560 nm excitation/590 nm emission. Percent viability was calculated from a reference using untreated healthy cells, which were considered 100% viable, and cell-free wells containing reagent alone, which were considered 0% viable.
(§3) Breast cancer cells, cultured alone or with MSCs for 12 days, were treated with AMD3100, or untreated. After 48 hours, all cultures were exposed to carboplatin, with re-added AMD3100 in cultures that had initial AMD3100. After 72 hours, the viable cells were counted (A and B), and presented (C and D) as the mean±SD, n=3. Whole cell extracts from these experiments were analyzed by immunoblot for caspase-3 (E). Membranes were stripped and re-probed with β-actin for normalization. Representative blots are shown, n=3.
(§4) Breast cancer cells cultured in the presence or absence of MSCs for 12 days were treated for 48 hours with AMD3100, or untreated. Following 48 hours, treated and untreated cells were exposed to carboplatin for 72 hours to induce cell death. […] At the end of this regiment cell proliferation (A and B) and viability (C and D) were assessed. The results are presented as the mean±SD, n=3.

MDA-MB-231 [6] = test system: MDA-MB-231; remark: listed apart in the source
Experimental: as §1, §2, §3, §4

caspase-3 = details: breast cancer cells isolated from co-culture, carboplatin added with AMD3100
Experimental: Whole cell extracts from breast cancer cells and MSCs were prepared in accordance with accepted methods and 20 μg were analyzed by western blots using 4-20% SDS-PAGE (Bio-Rad, Hercules, Calif.). The proteins were transferred onto polyvinylidene difluoride membranes (Perkin Elmer Life Sciences, Boston, Mass.). Membranes were incubated overnight with primary antibodies and then detected the following day by 2 hour incubation with HRP-conjugated IgG. All primary and secondary antibodies were used at final dilutions of 1/1000 and 1/2000, respectively. HRP was developed with chemiluminscence detection reagent (Perkin Elmer Life Sciences). The membranes were stripped with Restore Stripping Buffer (Pierce, Rockford, Ill.) for reprobing with other antibodies.

T47D [7] = assay: CyQuant proliferation of T47D, alone or in co-culture with MSCs
IL-1α = details: MDA-MB-231 transwell cultures, MSCs obtained from AMD3100-treated co-cultures, 48 hours
Experimental: as §5, §6

CXCR7 = CXCR7 (Homo sapiens, UniProt P25106); details: cited from earlier work
MDA-MB-231 [8] = assay: Tumor volume of subcutaneous MDA-MB-231 (with or without MSCs) in nude BALB/c mice; assay type: in vivo
Experimental: To validate our in vitro studies, female nude BALB/c mice were injected subreast cancerutaneously with 10^6 matrigel-resuspended MDA-MB-231 alone or in combination with 10^6 MSCs, as per the experimental design described in FIG. 7A. Mice were divided into the following experimental groups (n=5 per group): (A) breast cancer cells injected alone; (B) breast cancer cells injected in combination with MSCs; (C) group B plus AMD3100 treatment; (D) group C plus IL-1ra co-treatment. All groups were treated with carboplatin at days 8 and 10 following initial injection of cells, and the animals euthanized at the experimental endpoint of day 12 (D12).
Female nude BALB/c mice (4 weeks) were obtained from Harlan Laboratories (Indianapolis, Ind.) and housed in a laminar flow hood at an AALAC-accredited facility. The use of mice was approved by the Institutional Animal Care and Use Committee, New Jersey Medical School (Newark, N.J.). MDA-MB-231 (10^6), alone or in combination with MSCs (10^6), in 0.1 mL and equal volume of BD Matrigel (BD Biosciences, Bedford, Mass.) were injected by subreast cancerutaneous route in the nude mice (Day 0, D0). After 4 days, the tumors were injected with AMD3100 alone or in combination with IL-1ra or vehicle (hereafter termed ‘treatment’). Mice were given a second ‘treatment’ at D8 along with a first dose of chemotherapy delivered intra-peritoneally. A second dose of chemotherapy was given at D10 and the mice euthanized at D12.
In FIG. 7, the effects of AMD3100 and carboplatin on tumor volume are represented. The method by which mice were treated is shown in (A). (B) Female BALB/c (n=5) were injected subreast cancerutaneously with matrigel and 10^6 MDA-MB-231 alone or in combination with 10^6 MSCs. The mean volumes at the first injection (day 8, D8) are normalized to 100% and the change in volumes at D10 and D12 are presented as mean±SD.

[9] = MDA-MB-231 + MSCs, AMD3100 48 hours, then carboplatin 72 hours in the absence of AMD3100 (FIG. 6)
[10] = T47D + MSCs, AMD3100 48 hours, then carboplatin 72 hours in the absence of AMD3100 (FIG. 6)

Chain of CXCR7 (P25106 whole entry, species assumed): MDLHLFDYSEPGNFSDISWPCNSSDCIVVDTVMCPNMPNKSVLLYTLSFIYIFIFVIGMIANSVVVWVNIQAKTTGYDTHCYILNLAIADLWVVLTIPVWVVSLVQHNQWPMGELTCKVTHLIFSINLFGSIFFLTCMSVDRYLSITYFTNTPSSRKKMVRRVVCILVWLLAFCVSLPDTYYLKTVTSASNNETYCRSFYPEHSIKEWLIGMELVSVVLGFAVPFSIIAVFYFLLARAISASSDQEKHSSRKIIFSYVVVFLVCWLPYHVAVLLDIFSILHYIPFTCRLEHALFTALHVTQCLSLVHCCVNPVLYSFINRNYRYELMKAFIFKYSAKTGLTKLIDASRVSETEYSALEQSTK

c1cc(CN2CCCNCCNCCCNCC2)ccc1CN1CCCNCCNCCCNCC1 [AMD3100]
proliferation in 12-day (D12) co-culture with MSCs (MDA-MB-231 [1]; MDA-MB-231 + MSCs 12 days, optimal AMD3100 during the last 48 hours, effect on the MSC-mediated decrease): significantly (p<0.05) reversed | AMD3100 concentration of sensitivity (optimal dose for proliferation) (MDA-MB-231 [1]; MDA-MB-231 + MSCs, 48-hour culture): 10 ng/mL | proliferation of breast cancer cells in co-cultures with MSCs (MDA-MB-231 [1]; MDA-MB-231 + MSCs, 48-hour culture, AMD3100 10 and 100 ng/ml, compared to breast cancer cells alone (FIG. 1D)): promoted the proliferation | cell proliferation after AMD3100 pre-treatment and chemotherapy without the antagonist (MDA-MB-231 [1]; [9]): effect on cell proliferation and viability was lost | time at which the increase in proliferation began (MDA-MB-231 [1]; MDA-MB-231, optimal AMD3100 dose): 1 h | optimum time for AMD3100-mediated proliferation (MDA-MB-231 [1]; MDA-MB-231, optimal AMD3100 dose, various times (FIG. 1F)): 48 h | proliferation of breast cancer cells alone (MDA-MB-231 [1]; MDA-MB-231 cultured alone, 48 hours, AMD3100): decrease in cell proliferation | naïve breast cancer cell proliferation in transwells [2]: significant (p<0.05) increase | cycling cells (S/G2/M phase) (breast cancer cells): significant (p<0.05) increase in cycling cells | effect on primary and metastatic breast cancer [3]: can decrease primary and metastatic breast cancer in mice | overall survival for experimental lung metastases [3]: no effect on the overall survival | IL-1β in transwell media, fold greater (IL-1β): 5 fold | mobilization of hematopoietic stem cells [4]: can mobilize hematopoietic stem cells | cell viability with AMD3100 (T47D [5]): no change in cell viability | resistance to carboplatin when chemotherapy was added with AMD3100 (T47D [5]; T47D + MSCs 12 days, AMD3100 48 hours then carboplatin with re-added AMD3100 72 hours): resistance was compromised | viability after AMD3100 pre-treatment and chemotherapy without the antagonist (T47D [5]; [10]): effect on cell proliferation and viability was lost | cell viability with AMD3100 (MDA-MB-231 [6]): no change in cell viability | resistance to carboplatin when chemotherapy was added with AMD3100 (MDA-MB-231 [6]; MDA-MB-231 + MSCs 12 days, AMD3100 48 hours then carboplatin with re-added AMD3100 72 hours): resistance was compromised | viability after AMD3100 pre-treatment and chemotherapy without the antagonist (MDA-MB-231 [6]; [9]): effect on cell proliferation and viability was lost | caspase-3 immunoreactivity (caspase-3): increased caspase-3 immunoreactivity | proliferation in 12-day (D12) co-culture with MSCs (T47D [7]; T47D + MSCs 12 days, optimal AMD3100 during the last 48 hours, effect on the MSC-mediated decrease): significantly (p<0.05) reversed | AMD3100 concentration of sensitivity (optimal dose for proliferation) (T47D [7]; T47D + MSCs, 48-hour culture): 100 ng/mL | proliferation of breast cancer cells in co-cultures with MSCs (T47D [7]; T47D + MSCs, 48-hour culture, AMD3100 10 and 100 ng/ml, compared to breast cancer cells alone (FIG. 1E)): promoted the proliferation | cell proliferation after AMD3100 pre-treatment and chemotherapy without the antagonist (T47D [7]; [10]): effect on cell proliferation and viability was lost | proliferation of breast cancer cells alone (T47D [7]; T47D cultured alone, 48 hours, AMD3100): decrease in cell proliferation | relation of proliferation to AMD3100 concentration (T47D [7]; T47D, closed circles FIG. 1E, 10 and 100 ng/ml): inversely related to AMD3100 concentration | time at which the increase in proliferation began (T47D [7]; T47D, optimal AMD3100 dose, relative to MDA-MB-231): at a later time point | optimum time for AMD3100-mediated proliferation (T47D [7]; T47D, optimal AMD3100 dose, various times (FIG. 1G)): 48 h | IL-1α in transwell media, fold greater (IL-1α): 3 fold | action on CXCR7 (CXCR7): allosteric agonist of CXCR7 | mean tumor volume by D12 (MDA-MB-231 [8]; group C: breast cancer cells + MSCs, tumors injected with AMD3100, carboplatin at days 8 and 10): significant reduction in tumor volume; also recorded: significantly (p<0.05) reversed the chemoprotective effect of MSCs

N.N.O=C([O-])C1(C(=O)[O-])CCC1.[Pt+2] [carboplatin]
response to carboplatin (viable cells / viability) in co-culture with MSCs (T47D [5]; T47D + MSCs 12 days, carboplatin 72 hours, no AMD3100, compared to breast cancer cells alone): chemoresistant | response to carboplatin (viable cells / viability) in co-culture with MSCs (MDA-MB-231 [6]; MDA-MB-231 + MSCs 12 days, carboplatin 72 hours, no AMD3100, compared to breast cancer cells alone): chemoresistant | mean tumor volume by D12 (MDA-MB-231 [8]; group A: breast cancer cells injected alone, carboplatin at days 8 and 10): drastic reduction in mean tumor volume | mean tumor volume by D12 (MDA-MB-231 [8]; group B: breast cancer cells co-injected with MSCs, carboplatin at days 8 and 10, effect on the reduction seen in group A): significantly (p<0.05) impeded

IL-1ra: IL-1 receptor antagonist used to block the activity of IL-1 in the mouse tumor model
mean tumor volume by D12 (MDA-MB-231 [8]; group D: group C plus IL-1ra co-treatment, effect on the AMD3100 response): negated this response
